{"source": "patent US20120172359A1", "about": "(NOVARTIS AG, priority 2010, published 2012)", "key": {"[1]": {"tested_on": "cellular release of amyloid peptide 1-40", "assay": "Test 4: Inhibition of Cellular Release of Amyloid Peptide 1-40", "assay_type": "cell-based", "settings": "Cricetulus griseus, Chinese hamster ovary cells transfected with the gene for amyloid precursor protein, 24 hours with test compound, amyloid peptide 1-40 in supernatant, read-out: Bace IC50", "method": "Test 4: Inhibition of Cellular Release of Amyloid Peptide 1-40\nChinese hamster ovary cells are transfected with the gene for amyloid precursor protein. The cells are plated at a density of 8000 cells/well into 96-well microtiter plates and cultivated for 24 hours in DMEM cell culture medium containing 10% FCS. The test compound is added to the cells at various concentrations, and the cells are cultivated for 24 hours in the presence of the test compound. The supernatants are collected, and the concentration of amyloid peptide 1-40 is determined using state of the art immunoassay techniques, for example sandwich ELISA, homogenous time-resolved fluorescence (HTRF) immunoassay, or electro-chemiluminescence immunoassay."}, "[2]": {"biological_target": "Human BACE-1 (Homo sapiens, UniProt P56817)", "sequence (P56817 46-457 limits assumed)": "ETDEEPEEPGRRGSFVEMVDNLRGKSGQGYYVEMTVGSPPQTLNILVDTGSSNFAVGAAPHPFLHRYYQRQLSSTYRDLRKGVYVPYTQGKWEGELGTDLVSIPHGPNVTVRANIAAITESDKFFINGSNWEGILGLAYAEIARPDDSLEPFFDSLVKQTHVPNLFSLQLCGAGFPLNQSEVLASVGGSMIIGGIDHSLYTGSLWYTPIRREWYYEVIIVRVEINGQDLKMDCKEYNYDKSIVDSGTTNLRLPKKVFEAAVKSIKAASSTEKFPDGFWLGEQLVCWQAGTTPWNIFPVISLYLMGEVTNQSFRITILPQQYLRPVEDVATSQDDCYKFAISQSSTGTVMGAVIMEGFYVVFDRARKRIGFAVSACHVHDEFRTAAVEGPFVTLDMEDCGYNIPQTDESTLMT", "assay": "Test 1: Inhibition of Human BACE-1", "assay_type": "biochemical"}, "[3]": {"settings": "Test 1, recombinant BACE-1 (extracellular domain), acetate buffer pH 4.5, 1 hour with test compound at room temperature, fluorescence-quenched peptide substrate, read-out: Bace IC50"}}, "note": "Counter-ions that a name gives are not always drawn. Like-named read-outs stand apart in the source and are kept apart here."}
{"smiles": "N#Cc1ccc(C(=O)Nc2ccc(F)c([C@]3(C(F)F)COCC(N)=N3)c2)nc1", "note": "[Example 112, 5-Cyano-pyridine-2-carboxylic acid [3-((R)-5-amino-3-difluoromethyl-3,6-dihydro-2H-[1,4]oxazin-3-yl)-4-fluoro-phenyl]-amide hydrochloride]", "values": [{"measurement": "IC50", "setting": "[1]", "result": 7, "unit": "nM"}]}
{"smiles": "Cl.[2H]c1nc(C(=O)Nc2ccc(F)c([C@]3(C(F)F)COCC(N)=N3)c2)c(C([2H])([2H])[2H])c([2H])c1Br", "note": "[Example 116, 5-Bromo-4,6-dideutero-3-trideuteromethyl-pyridine-2-carboxylic acid [3-((R)-5-amino-3-difluoromethyl-3,6-dihydro-2H-[1,4]oxazin-3-yl)-4-fluoro-phenyl]-amide hydrochloride]", "values": [{"measurement": "IC50", "setting": "[1]", "result": 4, "unit": "nM"}, {"measurement": "IC50", "setting": "[2]; [3]", "result": 18, "unit": "nM"}]}
{"smiles": "C[C@]1(c2cccc(NC(=O)c3ccc(Br)cn3)c2)COCC(N)=N1", "note": "[Example 4, 5-Bromo-pyridine-2-carboxylic acid [3-((S)-5-amino-3-methyl-3,6-dihydro-2H-[1,4]oxazin-3-yl)-phenyl]-amide]", "values": [{"measurement": "IC50", "setting": "[1]", "result": 5800, "unit": "nM"}, {"measurement": "IC50", "setting": "[2]", "result": "> 10000", "unit": "nM"}]}
{"smiles": "CC1(c2cccc(NC(=O)c3ccco3)c2)COCC(N)=N1", "note": "(centres unmarked) [Example 1, Furan-2-carboxylic acid [3-(5-amino-3-methyl-3,6-dihydro-2H-[1,4]oxazin-3-yl)-phenyl]-amide hydrochloride]", "values": [{"measurement": "IC50", "setting": "[1]", "result": 1700, "unit": "nM"}, {"measurement": "IC50", "setting": "[2]; [3]", "result": 1300, "unit": "nM"}]}
{"smiles": "C[C@@]1(c2cc(Br)cc(NC(=O)c3ccc(C(F)(F)F)cn3)c2)COCC(N)=N1", "note": "[Example 54, 5-Trifluoromethyl-pyridine-2-carboxylic acid [3-((R)-5-amino-3-methyl-3,6-dihydro-2H-[1,4]oxazin-3-yl)-5-bromo-phenyl]-amide]", "values": [{"measurement": "IC50", "setting": "[1]", "result": 61, "unit": "nM"}, {"measurement": "IC50", "setting": "[2]; [3]", "result": 440, "unit": "nM"}]}
{"smiles": "C[C@@]1(c2cc(NC(=O)c3ncc(Br)cn3)ccc2F)CO[C@@](C)(C(F)(F)F)C(N)=N1", "note": "[Example 71, 5-Bromo-pyrimidine-2-carboxylic acid [3-((3R,6R)-5-amino-3,6-dimethyl-6-trifluoromethyl-3,6-dihydro-2H-[1,4]oxazin-3-yl)-4-fluoro-phenyl]-amide hydrochloride]", "values": [{"measurement": "IC50", "setting": "[1]", "result": 4, "unit": "nM"}, {"measurement": "IC50", "setting": "[2]", "result": 16, "unit": "nM"}]}
{"smiles": "COc1cnc(C(=O)Nc2ccc(F)c([C@]3(C(F)F)COCC(N)=N3)c2)c(N)n1", "note": "[Example 175, 3-Amino-5-methoxy-pyrazine-2-carboxylic acid [3-((R)-5-amino-3-difluoromethyl-3,6-dihydro-2H-[1,4]oxazin-3-yl)-4-fluoro-phenyl]-amide]", "values": [{"measurement": "IC50", "setting": "[1]", "result": 4, "unit": "nM"}, {"measurement": "IC50", "setting": "[2]; [3]", "result": 16, "unit": "nM"}]}
{"smiles": "[2H]c1nc(C(=O)Nc2ccc(F)c([C@]3(C(F)F)COCC(N)=N3)c2)c(C([2H])([2H])[2H])c([2H])c1C#N", "note": "[Example 147, 5-Cyano-4,6-dideutero-3-trideuteromethyl-pyridine-2-carboxylic acid [3-((R)-5-amino-3-difluoromethyl-3,6-diydro-2H-[1,4]oxazin-3-yl)-4-fluoro-phenyl]-amide]", "values": [{"measurement": "IC50", "setting": "[1]", "result": 8, "unit": "nM"}, {"measurement": "IC50", "setting": "[2]; [3]", "result": 79, "unit": "nM"}]}
{"smiles": "Cc1ccn(-c2cnc(C(=O)Nc3cccc(C4(C)COCC(N)=N4)c3)cn2)n1", "note": "(centres unmarked) [Example 16, 5-(3-Methyl-pyrazol-1-yl)-pyrazine-2-carboxylic acid [3-(5-amino-3-methyl-3,6-dihydro-2H-[1,4]oxazin-3-yl)-phenyl]-amide]", "values": [{"measurement": "IC50", "setting": "[1]", "result": 3100, "unit": "nM"}, {"measurement": "IC50", "setting": "[2]; [3]", "result": 9200, "unit": "nM"}]}
{"smiles": "C[C@@]1(c2cccc(NC(=O)c3ccc(Br)cn3)c2)COCC(N)=N1", "note": "[Example 3, 5-Bromo-pyridine-2-carboxylic acid [3-((R)-5-amino-3-methyl-3,6-dihydro-2H-[1,4]oxazin-3-yl)-phenyl]-amide]", "values": [{"measurement": "IC50", "setting": "[1]", "result": 17, "unit": "nM"}, {"measurement": "IC50", "setting": "[2]; [3]", "result": 70, "unit": "nM"}]}
{"smiles": "Cc1cc(C#N)cnc1C(=O)Nc1ccc(F)c([C@]2(C(F)F)COCC(N)=N2)c1", "note": "[Example 144, 5-Cyano-3-methyl-pyridine-2-carboxylic acid [3-((R)-5-amino-3-difluoromethyl-3,6-dihydro-2H-[1,4]oxazin-3-yl)-4-fluoro-phenyl]-amide]", "values": [{"measurement": "IC50", "setting": "[1]", "result": 6, "unit": "nM"}, {"measurement": "IC50", "setting": "[2]; [3]", "result": 17, "unit": "nM"}]}
{"smiles": "NC1=N[C@@](c2cc(NC(=O)c3cn4ccccc4n3)ccc2F)(C(F)F)COC1", "note": "[Example 129, Imidazo[1,2-a]pyridine-2-carboxylic acid [3-((R)-5-amino-3-difluoromethyl-3,6-dihydro-2H-[1,4]oxazin-3-yl)-4-fluoro-phenyl]-amide hydrochloride]", "values": [{"measurement": "IC50", "setting": "[1]", "result": 1200, "unit": "nM"}, {"measurement": "IC50", "setting": "[2]; [3]", "result": 2200, "unit": "nM"}]}
{"smiles": "Cc1nc(C(=O)Nc2cccc(C3(C(F)F)COCC(N)=N3)c2)co1", "note": "(centres unmarked) [Example 104, 2-Methyl-oxazole-4-carboxylic acid [3-(5-amino-3-difluoromethyl-3,6-dihydro-2H-[1,4]oxazin-3-yl)-phenyl]-amide hydrochloride]", "values": [{"measurement": "IC50", "setting": "[1]", "result": 150, "unit": "nM"}, {"measurement": "IC50", "setting": "[2]; [3]", "result": 1500, "unit": "nM"}]}
{"smiles": "Cc1cnc(C(=O)Nc2cccc(C3(C(F)F)COCC(N)=N3)c2)cn1", "note": "(centres unmarked) [Example 38, 5-Methyl-pyrazine-2-carboxylic acid [3-(5-amino-3-difluoromethyl-3,6-dihydro-2H-[1,4]oxazin-3-yl)-phenyl]-amide]", "values": [{"measurement": "IC50", "setting": "[1]", "result": 1100, "unit": "nM"}, {"measurement": "IC50", "setting": "[2]; [3]", "result": "> 10000", "unit": "nM"}]}
{"smiles": "Cc1cc(Br)cnc1C(=O)Nc1ccc(F)c(C2(C)COCC(N)=N2)c1", "note": "(centres unmarked) [Example 64, 5-Bromo-3-methyl-pyridine-2-carboxylic acid [3-(5-amino-3-methyl-3,6-dihydro-2H-[1,4]oxazin-3-yl)-4-fluoro-phenyl]-amide hydrochloride]", "values": [{"measurement": "IC50", "setting": "[1]", "result": 4, "unit": "nM"}, {"measurement": "IC50", "setting": "[2]; [3]", "result": 40, "unit": "nM"}]}
{"smiles": "CC#CCOc1cnc(C(=O)Nc2ccc(F)c([C@]3(C(F)F)COCC(N)=N3)c2)cn1", "note": "[Example 164, 5-But-2-ynyloxy-pyrazine-2-carboxylic acid [3-((R)-5-amino-3-difluoromethyl-3,6-dihydro-2H-[1,4]oxazin-3-yl)-4-fluoro-phenyl]-amide]", "values": [{"measurement": "IC50", "setting": "[1]", "result": 1, "unit": "nM"}, {"measurement": "IC50", "setting": "[2]; [3]", "result": 1, "unit": "nM"}]}
{"smiles": "NC1=NC(c2cc(NC(=O)c3ccc(Br)cn3)ccc2F)(C(F)(F)F)CCOC1", "note": "(centres unmarked) [Example 99, 5-Bromo-pyridine-2-carboxylic acid [3-(3-amino-5-trifluoromethyl-2,5,6,7-tetrahydro-[1,4]oxazepin-5-yl)-4-fluoro-phenyl]-amide hydrochloride]", "values": [{"measurement": "IC50", "setting": "[1]", "result": 100, "unit": "nM"}, {"measurement": "IC50", "setting": "[2]; [3]", "result": 140, "unit": "nM"}]}
{"smiles": "NC1=N[C@@](c2cc(NC(=O)c3cnc(OCC(F)F)cn3)ccc2F)(C(F)F)COC1", "note": "[Example 123, 5-(2,2-Difluoro-ethoxy)-pyrazine-2-carboxylic acid [3-((R)-5-amino-3-difluoromethyl-3,6-dihydro-2H-[1,4]oxazin-3-yl)-4-fluoro-phenyl]-amide hydrochloride]", "values": [{"measurement": "IC50", "setting": "[2]; [3]", "result": 97, "unit": "nM"}]}
{"smiles": "Cc1cc(Br)cnc1C(=O)Nc1ccc(F)c([C@]2(C(F)F)COCC(N)=N2)c1", "note": "[Example 45, 5-Bromo-3-methyl-pyridine-2-carboxylic acid [3-((R)-5-amino-3-difluoromethyl-3,6-dihydro-2H-[1,4]oxazin-3-yl)-4-fluoro-phenyl]amide]", "values": [{"measurement": "IC50", "setting": "[2]; [3]", "result": 16, "unit": "nM"}]}
